Molecules are shown by their SMILES.

The first assay deals with T1, hA2A receptors (Homo sapiens, UniProt P29274).
T1 construct: purchased Receptor Biology, Inc. (USA); host or cells: HEK293
T1 sequence (P29274 whole entry): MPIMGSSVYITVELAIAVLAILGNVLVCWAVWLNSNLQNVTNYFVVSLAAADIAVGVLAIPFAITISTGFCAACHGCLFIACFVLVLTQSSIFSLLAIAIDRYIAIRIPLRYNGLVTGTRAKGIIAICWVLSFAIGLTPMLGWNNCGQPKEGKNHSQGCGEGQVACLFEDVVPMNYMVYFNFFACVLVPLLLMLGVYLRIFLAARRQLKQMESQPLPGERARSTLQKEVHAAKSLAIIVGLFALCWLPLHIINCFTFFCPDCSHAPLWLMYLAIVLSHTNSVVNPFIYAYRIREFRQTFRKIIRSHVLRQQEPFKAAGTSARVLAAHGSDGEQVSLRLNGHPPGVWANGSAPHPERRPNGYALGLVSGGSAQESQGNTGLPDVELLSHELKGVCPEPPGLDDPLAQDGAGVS
Briefly: Adenosine 2A receptor subtype competition radioligand binding. The note with it: membranes from hA2A receptors transfected to HEK293 cells, [3H]ZM241385 as radioligand, 90 min at 25° C.; read-out: IC50 A2A. As to the method: Adenosine 2A Receptor Subtype Competition Radioligand Binding
Human membranes from recombinant A2A receptors were purchased from Receptor Biology, Inc. (USA).
Competition assays were carried out by incubation of membranes from hA2A receptors transfected to HEK293 cells, [^3H]ZM241385 as radioligand, buffer (50 mM Tris-HCl (pH 7.4), 10 mM MgCl2, 1 mM EDTA, 2 units/ml adenosine deaminase), and unlabelled ligand in a total volume of 0.2 ml for 90 min at 25° C. NECA was used to determinate non-specific binding. Filter over Schleicher&Schuell GF/52 filters (pre-soaked 0.5% polyethylenyimine) in a Brandel cell harvester. Unbound radioligand was removed with 3×3 ml ice-cold 50 mM Tris-Hcl 50 (pH 7.4), 0.9% NaCl.
A word on the IC50: it is the midpoint of a concentration-inhibition curve. `CCCn1c(=O)c2[nH]c(-c3ccc(S(=O)(=O)NC4CCN(Cc5ccccc5)CC4)cc3)cc2n(CCC)c1=O` [Example 97, N-(1-Benzylperidin-4-yl)-4-(2,4-dioxo-1,3-dipropyl-2,3,4,5-tetrahydro-1H-pyrrolo[3,2-d]pyrimidin-6-yl)benzenesulphonamide]: the IC50 amounted to 0.06 µM.

As for `CCn1c(=O)c2[nH]c(-c3ccc(S(=O)(=O)NC4CCN(Cc5ccc(F)cc5)CC4)cc3)cc2n(CC)c1=O` [Example 69, 4-(1,3-Diethyl-2,4-dioxo-2,3,4,5-tetrahydro-1H-pyrrolo[3,2-d]pyrimidin-6-yl)-N-[1-(4-fluorobenzyl)piperidin-4yl]benzenesulphonamide], the IC50 worked out at 0.084 µM. `Cn1c(=O)c2[nH]c(-c3ccc(S(=O)(=O)N4CCN(Cc5ccc(Cl)s5)CC4)cc3)cc2n(C)c1=O` [Example 18, 6-{4-[4-(5-Chlorothiophen-2-ylmethyl)piperazine-1-sulphonyl]phenyl}-1,3-dimethyl-1,5-dihydropyrrolo[3,2-d]pyrimidine-2,4-dione]: the half-maximal inhibitory concentration (IC50) stood at 0.085 µM. As for `CCn1c(=O)c2[nH]c(-c3ccc(S(=O)(=O)N4CCN(Cc5ccc(Cl)s5)CC4)cc3)cc2n(CC)c1=O` [Example 59, 6-{4-[4-(5-Chlorothiophen-2-ylmethyl)piparazine-1-sulphonyl]phenyl}-1,3-diethyl-1,5-dihydropyrrolo[3,2-d]pyrimidine-2,4dione], the IC50 turned out to be 0.028 µM. On the same count and under the same terms, then `Cn1c(=O)c2[nH]c(-c3ccc(S(=O)(=O)Nc4ccccn4)cc3)cc2n(C)c1=O` [Example 38, 4-(1,3-Dimethyl-2,4-dioxo-2,3,4,5-tetrahydro-1H-pyrrolo[3,2-d]pyrimidin-6-yl)-N-pyridin-2-ylbenzenesulphonamide], with 0.075 µM.

In the next assay the target is T2, hA2B receptors (Homo sapiens, UniProt P29275).
T2 construct: purchased Receptor Biology, Inc. (USA); host or cells: HEK293
T2 sequence (P29275 1-332): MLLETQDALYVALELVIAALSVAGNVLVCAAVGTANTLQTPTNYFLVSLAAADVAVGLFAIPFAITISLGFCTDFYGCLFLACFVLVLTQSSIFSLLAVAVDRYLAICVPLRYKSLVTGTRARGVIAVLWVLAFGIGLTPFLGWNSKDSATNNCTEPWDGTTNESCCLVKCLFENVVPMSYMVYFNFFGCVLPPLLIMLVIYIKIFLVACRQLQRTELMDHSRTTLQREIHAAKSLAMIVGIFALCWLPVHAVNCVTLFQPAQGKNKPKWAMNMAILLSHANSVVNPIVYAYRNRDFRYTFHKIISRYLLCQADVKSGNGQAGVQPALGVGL
The experiment in a line: Adenosine 2B receptor subtype competition radioligand binding. The note with it: membranes from hA2B receptors transfected to HEK293 cells, [3H]DPCPX as radioligand, 30 min at 25° C.; read-out: IC50 A2B. Here is the method: Adenosine 2B Receptor Subtype Competition Radioligand Binding
Human membranes from recombinant A2B receptors were purchased from Receptor Biology, Inc.(USA).
Competition assays were carried out by incubation of membranes from hA2B receptors transfected to HEK293 cells, [^3H]DPCPX as radioligand, buffer (50 mM Tris-HCl (pH 6.5), 10 mM MgCl2, 1 mM EDTA, 0.1 mM benzamidine, 2 units/ml adenosine deaminase), and unlabelled ligand in a total volume of 0.1 ml for 30 min at 25° C. NECA was used to determinate non-specific binding. Filter over Schleicher&Schuell GF/52 filters (pre-soaked 0.5% polyethylenyimine) in a Brandel cell harvester. Unbound radioligand was removed with 4×2 ml ice-cold 50 mM Tris-Hcl (pH 6.5).
Turning to `Cn1c(=O)c2[nH]c(-c3ccc(S(=O)(=O)N4CCN(Cc5cccc(F)c5)CC4)cc3)cc2n(C)c1=O` [Example 3, 6-{4-[4-(3-Fluorobenzyl)piperazine-1-sulphonyl]phenyl}-1,3-dimethyl-1,5-dihydropyrrolo[3,2-d]pyrimidine-2,4-dione], the IC50 is 0.007 µM. In the case of `COc1cccc(OCCNS(=O)(=O)c2ccc(-c3cc4c([nH]3)c(=O)n(C)c(=O)n4C)cc2)n1` [Example 173, 4-(1,3-Dimethyl-2,4-dioxo-2,3,4,5-tetrahydro-1H-pyrrolo[3,2-d]pyrimidin-6-yl)-N-[2-(6-methoxypyridin-2-yloxy)ethyl]benzenesulfonamide], the IC50 is 0.005 µM. In the case of `Cn1c(=O)c2[nH]c(-c3ccc(S(=O)(=O)N4CCN(Cc5ccccc5)CC4)cc3)cc2n(C)c1=O` [Example 1, 6-[4-(4-Benzylpiperazine-1-sulphonyl)phenyl]-1,3-dimethyl-1,5-dihydropyrrolo[3,2-d]pyrimidine-2,4-dione], the IC50 is 0.016 µM. On the same count and under the same terms, under `CCCn1c(=O)c2[nH]c(-c3ccc(S(=O)(=O)N4CCN(Cc5ccc(F)cc5)CC4)cc3)cc2n(C)c1=O` [Example 107, 6-{4-[4-(4-Fluorobenzyl)piperazine-1-sulphonyl]phenyl}-1-methyl-3-propyl-1,5-dihydropyrrolo[3,2-d]pyrimidine-2,4-dione] stands 0.009 µM.

As to `CCCn1c(=O)c2[nH]c(-c3ccc(S(=O)(=O)N4CCN(Cc5ccc6c(c5)OCO6)CC4)cc3)cc2n(C)c1=O` [Example 118, 6[4-(4-Benzol[1,3]dioxol-5-ylmethylpiperazine-1-sulphonyl)phenyl]-1-methyl-3-propyl-1,5-dihydropyrrolo[3,2-d]pyrimidine-2,4-dione], the half-maximal inhibitory concentration (IC50) is 0.006 µM. The same measure, in the same setting: under `Cn1c(=O)c2[nH]c(-c3ccc(S(=O)(=O)NCCOc4ccccn4)cc3)cc2n(C)c1=O` [Example 172, 4-(1,3-Dimethyl-2,4-dioxo-2,3,4,5-tetrahydro-1H-pyrrolo[3,2-d]pyrimidin-6-yl)-N-[2-(pyridin-2-yloxy)ethyl]benzenesulfonamide] stands 0.017 µM; under `Cn1c(=O)c2[nH]c(-c3ccc(S(=O)(=O)NCCc4ccccn4)cc3)cc2n(C)c1=O` [Example 37, 4-(1,3-Dimethyl-2,4-dioxo-2,3,4,5-tetrahydro-1H-pyrrolo[3,2-d]pyrimidin-6-yl)-N-(2-pyridin-2-ylethyl)benzenesulphonamide], 0.014 µM; under `Cn1c(=O)c2[nH]c(-c3ccc(S(=O)(=O)N4CCN(Cc5ccc(Cl)s5)CC4)cc3)cc2n(C)c1=O` [Example 18, 6-{4-[4-(5-Chlorothiophen-2-ylmethyl)piperazine-1-sulphonyl]phenyl}-1,3-dimethyl-1,5-dihydropyrrolo[3,2-d]pyrimidine-2,4-dione], 0.004 µM. Same read-out and setting: then `CCCn1c(=O)c2[nH]c(-c3ccc(S(=O)(=O)N4CCN(c5ccccn5)CC4)cc3)cc2n(C)c1=O` [Example 126, 1-Methyl-3-propyl-6-[4-(4-pyridin-2-yipiperazine-1-sulphonyl)phenyl]-1,5-dihydropyrrolo[3,2-d]pyrimidin-2,4-dione], with 0.012 µM. On the same count and under the same terms, then `Cn1c(=O)c2[nH]c(-c3ccc(S(=O)(=O)Nc4ccccn4)cc3)cc2n(C)c1=O` [Example 38, 4-(1,3-Dimethyl-2,4-dioxo-2,3,4,5-tetrahydro-1H-pyrrolo[3,2-d]pyrimidin-6-yl)-N-pyridin-2-ylbenzenesulphonamide], with 0.012 µM. `COc1ccc(NS(=O)(=O)c2ccc(-c3cc4c([nH]3)c(=O)n(C)c(=O)n4C)cc2)cn1` [Example 36, 4-(1,3-Dimethyl-2,4dioxo-2,3,4,5-tetrahydro-1H-pyrrolo[3,2-d]pyrimidin-6-yl)-N-(6-methoxypyridin-3-yl)benzenesulphonamide]: the IC50 came out at 0.018 µM. Same read-out and setting: under `CCCn1c(=O)c2[nH]c(-c3ccc(S(=O)(=O)NCCc4ccccn4)cc3)cc2n(C)c1=O` [Example 132, 4-(1-Methyl-2,4-dioxo-3-propyl-2,3,4,5-tetrahydro-1H-pyrrolo[3,2-d]pyrimidin-6-yl)-N-(2-pyridin-2-ylethyl)benzenesulphonamide] stands 0.017 µM.
